Data from ChEMBL document CHEMBL3045652, “Biorational glycol diesters as dietary toxins versus bioefficacy of sucrose octanoate against lepidopteran larvae” (Ind Crops Prod, 2012).
≈ marks a conversion by molar mass, not a printed value. Calls of active or inactive are those of the source. The calls are words filed in the database; no cut-off is given here.

How the values were obtained:
Helicoverpa armigera [1] = experiment: Insecticidal activity against second-instar larval stage of Helicoverpa armigera fed with artificial diet containing compound assessed as mortality after 7 days; format: functional; conditions: 168 h
Spodoptera litura [2] = experiment: Insecticidal activity against second-instar larval stage of Spodoptera litura fed with artificial diet containing compound assessed as growth inhibition after 7 days; format: functional, organism-based; conditions: for EC50: 168 h
Helicoverpa armigera [3] = experiment: Antifeedant activity against third-instar larval stage of Helicoverpa armigera fed with artificial diet containing compound assessed as relative growth rate at 6.02 mg/ml after 3 days (reference value: 0.97 +/- 0.13 mg/mg/day); format: functional
Helicoverpa armigera [4] = experiment: Antifeedant activity against third-instar larval stage of Helicoverpa armigera fed with artificial diet containing compound assessed as efficiency index of ingested food at 6.02 mg/ml after 3 days (reference value: 52%); format: functional
Spodoptera litura [5] = experiment: Insecticidal activity against second-instar larval stage of Spodoptera litura fed with artificial diet containing compound assessed as mortality after 7 days; format: functional; conditions: 168 h
Spodoptera litura [6] = experiment: Antifeedant activity against third-instar larval stage of Spodoptera litura fed with artificial diet containing compound assessed as relative consumption rate at 3.72 mg/ml after 3 days (reference value: 2.13 +/- 0.18 mg/mg/day); format: functional
Spodoptera litura [7] = experiment: Antifeedant activity against third-instar larval stage of Spodoptera litura fed with artificial diet containing compound assessed as relative growth rate at 3.72 mg/ml after 3 days (reference value: 1.37 +/- 0.12 mg/mg/day); format: functional
Helicoverpa armigera [8] = experiment: Insecticidal activity against second-instar larval stage of Helicoverpa armigera assessed as increase in mortality applied as spray at 1 to 10 mg/ml after 72 hr; format: functional, organism-based
Spodoptera litura [9] = experiment: Antifeedant activity against third-instar larval stage of Spodoptera litura fed with artificial diet containing compound assessed as efficiency index of ingested food at 3.72 mg/ml after 3 days (reference value: 64.5%); format: functional
Helicoverpa armigera [10] = experiment: Antifeedant activity against third-instar larval stage of Helicoverpa armigera fed with artificial diet containing compound assessed as relative consumption rate at 6.02 mg/ml after 3 days (reference value: 1.88 +/- 0.14 mg/mg/day); format: functional
Helicoverpa armigera [11] = experiment: Insecticidal activity against second-instar larval stage of Helicoverpa armigera fed with artificial diet containing compound assessed as growth inhibition after 7 days; format: functional, organism-based; conditions: for EC50: 168 h
Spodoptera litura [12] = experiment: Insecticidal activity against second-instar larval stage of Spodoptera litura assessed as increase in mortality applied as spray at 1 to 10 mg/ml after 72 hr; format: functional, organism-based
Helicoverpa armigera [13] = experiment: Antifeedant activity against third-instar larval stage of Helicoverpa armigera fed with artificial diet containing compound assessed as relative growth rate at 3.94 mg/ml after 3 days (reference value: 0.97 +/- 0.13 mg/mg/day); format: functional
Spodoptera litura [14] = experiment: Insecticidal activity against second-instar larval stage of Spodoptera litura assessed as mortality applied as spray after 72 hr; format: functional
Helicoverpa armigera [15] = experiment: Antifeedant activity against third-instar larval stage of Helicoverpa armigera fed with artificial diet containing compound assessed as relative consumption rate at 3.94 mg/ml after 3 days (reference value: 1.88 +/- 0.14 mg/mg/day); format: functional
Spodoptera litura [16] = experiment: Antifeedant activity against third-instar larval stage of Spodoptera litura fed with artificial diet containing compound assessed as efficiency index of ingested food at 3.98 mg/ml after 3 days (reference value: 64.5%); format: functional
Helicoverpa armigera [17] = experiment: Insecticidal activity against second-instar larval stage of Helicoverpa armigera assessed as mortality applied as spray after 72 hr; format: functional
Spodoptera litura [18] = experiment: Antifeedant activity against third-instar larval stage of Spodoptera litura fed with artificial diet containing compound assessed as relative growth rate at 3.98 mg/ml after 3 days (reference value: 1.37 +/- 0.12 mg/mg/day); format: functional
Spodoptera litura [19] = experiment: Antifeedant activity against third-instar larval stage of Spodoptera litura fed with artificial diet containing compound assessed as relative consumption rate at 3.98 mg/ml after 3 days (reference value: 2.13 +/- 0.18 mg/mg/day); format: functional
Helicoverpa armigera [20] = experiment: Antifeedant activity against third-instar larval stage of Helicoverpa armigera fed with artificial diet containing compound assessed as efficiency index of ingested food at 3.94 mg/ml after 3 days (reference value: 52%); format: functional
Spodoptera litura [21] = experiment: Antifeedant activity against third-instar larval stage of Spodoptera litura fed with artificial diet containing compound assessed as relative growth rate at 3.34 mg/ml after 3 days (reference value: 1.37 +/- 0.12 mg/mg/day); format: functional
Helicoverpa armigera [22] = experiment: Antifeedant activity against third-instar larval stage of Helicoverpa armigera fed with artificial diet containing compound assessed as relative growth rate at 5.16 mg/ml after 3 days (reference value: 0.97 +/- 0.13 mg/mg/day); format: functional
Helicoverpa armigera [23] = experiment: Antifeedant activity against third-instar larval stage of Helicoverpa armigera fed with artificial diet containing compound assessed as efficiency index of ingested food at 5.16 mg/ml after 3 days (reference value: 52%); format: functional
Helicoverpa armigera [24] = experiment: Antifeedant activity against third-instar larval stage of Helicoverpa armigera fed with artificial diet containing compound assessed as relative consumption rate at 5.16 mg/ml after 3 days (reference value: 1.88 +/- 0.14 mg/mg/day); format: functional
Spodoptera litura [25] = experiment: Antifeedant activity against third-instar larval stage of Spodoptera litura fed with artificial diet containing compound assessed as relative consumption rate at 3.34 mg/ml after 3 days (reference value: 2.13 +/- 0.18 mg/mg/day); format: functional
Spodoptera litura [26] = experiment: Antifeedant activity against third-instar larval stage of Spodoptera litura fed with artificial diet containing compound assessed as efficiency index of ingested food at 3.34 mg/ml after 3 days (reference value: 64.5%); format: functional
Spodoptera litura [27] = experiment: Antifeedant activity against third-instar larval stage of Spodoptera litura fed with artificial diet containing compound assessed as relative growth rate at 8.32 mg/ml after 3 days (reference value: 1.37 +/- 0.12 mg/mg/day); format: functional
Helicoverpa armigera [28] = experiment: Antifeedant activity against third-instar larval stage of Helicoverpa armigera fed with artificial diet containing compound assessed as relative consumption rate at 9.82 mg/ml after 3 days (reference value: 1.88 +/- 0.14 mg/mg/day); format: functional
Spodoptera litura [29] = experiment: Antifeedant activity against third-instar larval stage of Spodoptera litura fed with artificial diet containing compound assessed as relative consumption rate at 8.32 mg/ml after 3 days (reference value: 2.13 +/- 0.18 mg/mg/day); format: functional
Helicoverpa armigera [30] = experiment: Antifeedant activity against third-instar larval stage of Helicoverpa armigera fed with artificial diet containing compound assessed as relative growth rate at 9.82 mg/ml after 3 days (reference value: 0.97 +/- 0.13 mg/mg/day); format: functional
Spodoptera litura [31] = experiment: Antifeedant activity against third-instar larval stage of Spodoptera litura fed with artificial diet containing compound assessed as efficiency index of ingested food at 8.32 mg/ml after 3 days (reference value: 64.5%); format: functional
Helicoverpa armigera [32] = experiment: Antifeedant activity against third-instar larval stage of Helicoverpa armigera fed with artificial diet containing compound assessed as efficiency index of ingested food at 9.82 mg/ml after 3 days (reference value: 52%); format: functional

SMILES | LC50 (Helicoverpa armigera [1]) | growth inhibition (GI) (Spodoptera litura [2]) | EC50 (Spodoptera litura [2]) | LC50 (Spodoptera litura [5]) | Activity (Helicoverpa armigera [8]) | growth inhibition (GI) (Helicoverpa armigera [11]) | EC50 (Helicoverpa armigera [11]) | Activity (Spodoptera litura [12]) | other results
CCCC(=O)OCCOC(=O)CCC [ETHYLENE GLYCOL DIBUTANOATE] | 2000 µg/mL (≈ 9.89 mM) | Dose-dependent effect | 1850 µg/mL (≈ 9.15 mM) | 2000 µg/mL (≈ 9.89 mM) | Active | Dose-dependent effect | 2820 µg/mL (≈ 13.9 mM) | Active | Activity (Helicoverpa armigera [3]): 0.55 mg/mg/day; ECI (Helicoverpa armigera [4]): 32.4%; Activity (Spodoptera litura [6]): 2.04 mg/mg/day; Activity (Spodoptera litura [7]): 0.74 mg/mg/day; ECI (Spodoptera litura [9]): 2%; Activity (Helicoverpa armigera [10]): 1.7 mg/mg/day
CCCCCCCC(=O)OCCOC(=O)CCCCCCC [ETHYLENE GLYCOL DIOCTANOATE] | 3140 µg/mL (≈ 9.99 mM) | Dose-dependent effect | 1980 µg/mL (≈ 6.3 mM) | 2000 µg/mL (≈ 6.36 mM) |  | Dose-dependent effect | 2080 µg/mL (≈ 6.61 mM) |  | Activity (Helicoverpa armigera [13]): 0.69 mg/mg/day; LC50 (Spodoptera litura [14]): 6100 µg/mL (≈ 19.4 mM); Activity (Helicoverpa armigera [15]): 1.9 mg/mg/day; ECI (Spodoptera litura [16]): 8%; LC50 (Helicoverpa armigera [17]): 6500 µg/mL (≈ 20.7 mM); Activity (Spodoptera litura [18]): 0.72 mg/mg/day; Activity (Spodoptera litura [19]): 2 mg/mg/day; ECI (Helicoverpa armigera [20]): 36.5%
CCCCC(=O)OCCOC(=O)CCCC [ETHYLENE GLYCOL DIPENTANOATE] | 2000 µg/mL (≈ 8.68 mM) | Dose-dependent effect | 1840 µg/mL (≈ 7.99 mM) | 2340 µg/mL (≈ 10.2 mM) | Active | Dose-dependent effect | 2120 µg/mL (≈ 9.21 mM) | Active | Activity (Spodoptera litura [21]): 0.64 mg/mg/day; Activity (Helicoverpa armigera [22]): 0.58 mg/mg/day; ECI (Helicoverpa armigera [23]): 31.9%; Activity (Helicoverpa armigera [24]): 1.82 mg/mg/day; Activity (Spodoptera litura [25]): 2.09 mg/mg/day; ECI (Spodoptera litura [26]): 4%
CCCCC(=O)OCCCCCOC(=O)CCCC [PENTANE-1,5-DIPENTANOATE] | 2000 µg/mL (≈ 7.34 mM) | Dose-dependent effect | 5010 µg/mL (≈ 18.4 mM) | 2000 µg/mL (≈ 7.34 mM) |  | Dose-dependent effect | 5880 µg/mL (≈ 21.6 mM) |  | Activity (Spodoptera litura [27]): 0.94 mg/mg/day; Activity (Helicoverpa armigera [28]): 1.79 mg/mg/day; Activity (Spodoptera litura [29]): 2.02 mg/mg/day; Activity (Helicoverpa armigera [30]): 0.66 mg/mg/day; ECI (Spodoptera litura [31]): 44%; ECI (Helicoverpa armigera [32]): 37.2%
